Data published in ChEMBL document CHEMBL3992552, “Mechanisms of action and structure-activity relationships of cytotoxic flavokawain derivatives” (Bioorg Med Chem, 2017).

How the values were obtained:
Huh-7 = assay: Cytotoxicity against human HuH7 cells assessed as cell survival at 50 uM after 48 hrs by Hoechst 33342 staining based assay relative to control; type: functional; settings: Huh-7, 48 h, read-out: Survival
Caco-2 = assay: Cytotoxicity against human Caco2 cells assessed as cell survival at 50 uM after 48 hrs by Hoechst 33342 staining based assay relative to control; type: functional; settings: Caco-2, 48 h, read-out: Survival
MDA-MB-231 = assay: Cytotoxicity against human MDA-MB-231 cells assessed as cell survival at 50 uM after 48 hrs by Hoechst 33342 staining based assay relative to control; type: functional; settings: MDA-MB-231, 48 h, read-out: Survival
HCT-116 = assay: Cytotoxicity against human HCT116 cells assessed as cell survival at 50 uM after 48 hrs by Hoechst 33342 staining based assay relative to control; type: functional; settings: HCT-116, 48 h, read-out: Survival
PC-3 = assay: Cytotoxicity against human PC3 cells assessed as cell survival at 50 uM after 48 hrs by Hoechst 33342 staining based assay relative to control; type: functional; settings: PC-3, 48 h, read-out: Survival
NCI-H727 = assay: Cytotoxicity against human NCI-H727 cells assessed as cell survival at 50 uM after 48 hrs by Hoechst 33342 staining based assay relative to control; type: functional; settings: NCI-H727, 48 h, read-out: Survival
HaCaT = assay: Cytotoxicity against human HaCaT cells assessed as cell survival at 50 uM after 48 hrs by Hoechst 33342 staining based assay relative to control; type: functional; settings: read-out: Survival
[1] = Cytotoxicity against human fibroblasts assessed as cell survival at 50 uM after 48 hrs by Hoechst 33342 staining based assay relative to control; design: species or system Fibroblast; settings: read-out: Survival

Structure (SMILES)	viability at 50 µM (Huh-7) [%]	viability at 50 µM (Caco-2) [%]	viability at 50 µM (MDA-MB-231) [%]	viability at 50 µM (HCT-116) [%]	viability at 50 µM (PC-3) [%]	viability at 50 µM (NCI-H727) [%]	viability at 50 µM (HaCaT) [%]	viability at 48 h, 50 µM [1] [%]
COc1cc(O)c(C(=O)/C=C/c2ccc(N(C)C)cc2)c(OC)c1	> 80	> 80	> 80	> 80	> 80	> 80	> 80	> 80
COc1ccc(/C=C/C(=O)c2c(O)cc(OC)cc2OC)cc1 [FLAVOKAWAIN A]	50	32	58	20	43	40	35	67
COc1cc(OC)c(C(=O)/C=C/c2ccc(C(=O)O)cc2)c(OC)c1	38	25	68	7	39	23	59	57
COc1cc(O)c(C(=O)/C=C/c2ccc(C(=O)O)cc2)c(OC)c1	> 80	> 80	> 80	> 80	> 80	> 80	> 80	> 80
COc1cc(O)c(C(=O)/C=C/c2ccc(Cl)cc2)c(OC)c1	> 80	> 80	> 80	> 80	> 80	> 80	> 80	> 80
COc1cc(OC)c(C(=O)/C=C/c2ccc(O)cc2)c(OC)c1	45	24	32	17	33	42	16	65
